Legend:
HepG2 cells [1] = assay: Kinetic and competitive study in HepG2 cells; format: cell-based; details: bestatin pretreatment 0, 10, 100 μM; Rhodo-P2 2.0 μM
Description: HepG2 cells (3×10^4 cells/well) were seeded in black-walled, transparent bottomed 96-well plates and cultured overnight. […] Kinetic study was performed in Synergy™ H1 microplate reader.

[2] = test system: Leucine aminopeptidase (LAP); assay: Competitive assay with LAP inhibitor bestatin; format: biochemical, porcine; details: bestatin pretreatment 0, 1, 10, 50, 100 μM; LAP 10 μg/mL; PBS pH 7.4, 37° C.
HepG2 cells [3] = assay: Confocal live cell imaging in HepG2 cells; format: cell-based; details: bestatin 500 μM pretreatment for 1 h, Rhodo-P1 1 μM
Description: HepG2 cells were maintained in DMEM medium containing 10% FBS and 1% antibiotics in the 15 μ-plate 96 well black (ibidi, Germany). HepG2 cells were incubated with or without 500 μM of bestatin, LAP inhibitor, for 1 h and subsequently treated with 1 μM of probe and Lyso-Tracker™ Red (Thermo Scientific, USA) for 1 h. The treated cells were washed three times with PBS and treated with 10 μM of DAPI (Thermo Scientific, USA) for 2 h. Imaged were collected by Leica confocal microscopy (TCS SP5 AOBS/Tandem, Leica, Germany). Lyso-Tracker™ Red was excited by 514 nm and detected by 570-620 nm, compounds were excited by 476 nm and detected by 505-545 nm, DAPI was excited by 405 nm and detected by 420-470 nm.

[4] = test system: Leucine aminopeptidase (LAP); assay: Enzymatic kinetic study of LAP reaction of activatable fluorescent probes; format: biochemical, porcine
Description: All spectroscopic readings were measured with BioTek Synergy™ H1 spectrophotometer, using 96 well microplate. A parent stock solution of probes was dissolved in DMSO to obtain 10 mM. Leucine aminopeptidase was dissolved in deionized water to obtain 1 mg/mL. All spectra measurements were carried out in PBS buffer solution (PBS buffer, 10 mM, pH 7.4, 37° C. The final volume in 96 well microplate was adjusted to 200 μL. RPMI 1640 was obtained from Thermo Scientific (Waltham, MA, USA). Bestatin hydrochloride (LAP inhibitor), DMSO and 2-mercaptoethanol were purchased from Sigma Aldrich (St. Louis, Mo, USA).
The kinetic study for LAP reaction was performed by incubation of 2 μg of LAP ([…]) with 1 μM probe in PBS buffer (10 mM, pH 7.4). The plate was incubated at 37° C. for 80 min with continuous shaking, and the emission spectra were recorded at the corresponding wavelength over time. A solution of LAP (2 μg/200 μL) was pretreated with bestatin (0, 1, 10, 50 and 100 μM) in PBS (10 mM, pH 7.4) at 37° C. for 30 min, and then 1 μM of probe was added. The mixture was incubated at 37° C., and the fluorescence was recorded on Synergy™ H1 using a 96-well microplate.
All reagents and solvents were obtained from commercial sources Sigma-Aldrich Chemical Co., Combi-Block, Tokyo Chemical Industries, Daejung Chemicals, and Alfa Aesar and used without purification. Anhydrous solvents were purchased from Sigma-Aldrich and used under dry nitrogen atmosphere. Ultrapure water was obtained from a water ultra-purification system. Completion of reaction was confirmed by thin layer chromatography (TLC) on Kiesegel 60F254 from Merck and all synthesized compounds were purified by flash column chromatography using ZEOprep 60 (40-63) […] silica gel from ZEOCHEM. ^1H and ^13C NMR spectra were measured on JEOL JNMECZ400s/L1 (400 MHZ) and CDCl3 or DMSO-d6 was used as the NMR solvents. The chemical shifts were quoted in parts per million (ppm) and the coupling constant (J) were reported in hertz unit (Hz). Chemical shifts (in ppm) were referenced to tetramethylsilane (δ=0 ppm) in CDCl3 as an internal standard. ^13C NMR spectra were reported in ppm referenced to the center line of the triplet at 77.0 ppm for CDCl3 or 39.5 ppm for DMSO-d6. All in vitro enzyme assays were performed by taking the absorbance and emission on Synergy™ H1 microplate reader from BioTek. Leucine aminopeptidase from porcine kidney and other enzymes were purchased from Sigma-Aldrich.

[5] = pH-dependent stability test; format: physicochemical; details: 1 μM probe, pH 2 to 12, 25° C.
Description: Thermal stability was evaluated by the incubation of 1 μM of the probe in PBS buffer (pH 7.4) at different temperatures ranging from 25 to 45° C. for 20 min and reading fluorescence at each temperature. The pH stability test was performed by the incubation with 1 μM probe in different pH buffers (2 to 13) at 25° C. and recording fluorescence at each pH.

[6] = test system: Leucine aminopeptidase (LAP); assay: Enzymatic kinetic study of LAP reaction of activatable fluorescent probes; format: biochemical, porcine; details: 1 μM probe; LAP 1, 5, 10, 20, 50, 100 μg/mL; PBS pH 7.4, 80 min, 37° C.
[7] = target: T1, Leucine aminopeptidase (LAP) (Sus scrofa, UniProt P15145); assay: Selectivity test against various bioanalytes; format: biochemical, porcine; details: 1 μM probe, 1 mM analytes or 1 U/mL enzymes, 0.05 U/mL LAP, PBS pH 7.4, 37° C., 1 h
T1 construct: purchased Sigma-Aldrich; host or cells: porcine kidney (tissue-derived enzyme)
T1 sequence (P15145 33-963 limits assumed): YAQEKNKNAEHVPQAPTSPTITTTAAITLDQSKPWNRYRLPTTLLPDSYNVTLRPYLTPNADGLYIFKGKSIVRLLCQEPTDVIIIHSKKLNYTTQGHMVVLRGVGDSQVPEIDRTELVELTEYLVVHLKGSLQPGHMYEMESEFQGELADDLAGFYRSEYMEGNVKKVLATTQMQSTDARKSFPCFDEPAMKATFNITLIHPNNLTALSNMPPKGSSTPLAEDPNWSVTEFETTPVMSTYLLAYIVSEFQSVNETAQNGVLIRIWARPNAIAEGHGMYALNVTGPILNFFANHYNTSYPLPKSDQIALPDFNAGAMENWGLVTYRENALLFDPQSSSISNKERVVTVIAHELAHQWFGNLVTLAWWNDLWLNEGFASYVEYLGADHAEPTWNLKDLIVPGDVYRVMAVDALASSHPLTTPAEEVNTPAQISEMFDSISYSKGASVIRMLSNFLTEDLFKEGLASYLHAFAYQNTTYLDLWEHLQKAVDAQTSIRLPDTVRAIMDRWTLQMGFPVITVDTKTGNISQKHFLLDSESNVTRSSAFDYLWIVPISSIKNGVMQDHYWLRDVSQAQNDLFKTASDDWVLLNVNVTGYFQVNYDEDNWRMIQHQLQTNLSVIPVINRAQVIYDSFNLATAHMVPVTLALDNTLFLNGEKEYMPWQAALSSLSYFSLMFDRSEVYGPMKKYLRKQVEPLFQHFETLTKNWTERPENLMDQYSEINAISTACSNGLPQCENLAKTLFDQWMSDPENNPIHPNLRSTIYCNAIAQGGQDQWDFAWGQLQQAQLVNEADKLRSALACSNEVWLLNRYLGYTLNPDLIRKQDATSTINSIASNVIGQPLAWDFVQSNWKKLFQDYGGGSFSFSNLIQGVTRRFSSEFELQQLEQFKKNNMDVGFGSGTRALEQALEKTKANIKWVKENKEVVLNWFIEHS
Description: 1 μM of probe was incubated with various bioanalytes containing 1 mM of NaOCl, H2O2, CaCl2), ZnCl2, KCl, NaCl, GSH, vitamin C, L-cystein, L-arginine, L-alanine and 1 U/mL of α-amylase, lysozyme, cellulase under 0.05 U/mL of LAP in PBS (10 mM, pH 7.4) at 37° C. for 1 h. The fluorescence was recorded on Synergy™ H1 microplate reader.

[8] = Ex vivo plasma stability in mice serum; format: in vitro ADME, C57BL/6 mice; details: 10 μM probe, 48 h
Description: Animal was treated strictly according to the guidelines for laboratory animal care and use issued by the Sunchon National University Institutional Animal Care and Use Committee (SCNU IACUC). Female C57/BL6 mice (7 weeks old), weighing about 17-20 g, were purchased from Orientbio (Orientbio Inc., Seongnam, Korea). Blood was collected from the posterior orbital plexus in normal mice and centrifuged (5000 rpm, 4° C., 5 minutes) to obtain serum. The stability study was performed by incubation of the fluorescent probe (10 μM) or rhodol fluorophore (0.1, 0.3, 1, 3 and 10 μM) with serum at 37° C. . . . The fluorescence was detected on Synergy™ H1 microplate reader.

SMILES	inhibition of Rhodo-P2 response in HepG2 cells (HepG2 cells [1])	inhibition of LAP reaction of Rhodo-P2 (fluorescence emission) [2]	effect of bestatin on probe fluorescence in confocal live cell imaging (HepG2 cells [3])	Fluorophore released in LAP reaction (% yield) ([4]; 1 μM probe, 10 μg/mL LAP, PBS pH 7.4, 37° C., 80 min) [%]	Fluorophore released in LAP reaction (concentration) ([4]; 1 μM probe, 10 μg/mL LAP, PBS pH 7.4, 37° C., 80 min, calculated from fluorophore calibration curves) [µM]	LAP response / fluorophore release (in words) ([4]; LAP reaction, enzymatic study)	pH-dependent stability (fluorescence of fluorophore released by degradation) [5]	LAP response at various concentrations of LAP [6]	selectivity for LAP over other bioanalytes (fluorescence response) [7]	time-dependent fluorescence emission in serum ([8]; C57/BL6 mice serum)	% survival rate of probe in serum ([8]; C57BL/6 mice serum, 37° C.) [%]
CC(C)C[C@H](NC(=O)[C@@H](O)[C@H](N)Cc1ccccc1)C(=O)O [bestatin]	concentration-dependent inhibition of Rhodo-P2	reduced fluorescence emission by released fluorophores in a concentration-dependent manner	only showed blue staining by DAPI without green fluorescence from the LAP probe								
COc1ccc2c(c1)Oc1cc(NC(=O)OCc3ccc(NC(=O)[C@@H](N)CC(C)C)cc3)ccc1C21OC(=O)c2ccccc21 (stereo partly drawn) [Probe 4, 4-((S)-2-Amino-4-methylpentanamido)benzyl methoxy-3-oxo-3H-spiro[isobenzofuran-1,9′-xanthen]-6′-(3′-yl)carbamate]				76.9	~0.769	high yields of LAP reactions	no change in fluorescence emission according to the change in pH	nearly maximal responses at 10 μg/mL of LAP	most biocompatible in selectivity tests as well as pH and thermal stability tests	fluorescence emission with a gentle increasing slope	48
